Reference: article PMC4821708 (Biochimica et biophysica acta, 2016)

Assays:
Cytoglobin (Cygb) [1] = target: T1, Cytoglobin (Cygb) (Homo sapiens, UniProt Q8WWM9); format: biochemical; conditions: cygb:lipid liposomes
[2] = target: Cytoglobin (Cygb Δ1-15Δ174-190) (Homo sapiens, UniProt Q8WWM9, Δ1-15Δ174-190); test: differential absorbance spectroscopy titration, […] fit; format: binding
[3] = target: Cytoglobin (Cygb), wild type (Homo sapiens, UniProt Q8WWM9); test: as above; format: binding
Cytoglobin (Cygb) [4] = target: T1, Cytoglobin (Cygb); test: LC-MS/MS of lipid oxidation products by Cygb/H2O2; format: biochemical

T1 sequence (Q8WWM9 whole entry): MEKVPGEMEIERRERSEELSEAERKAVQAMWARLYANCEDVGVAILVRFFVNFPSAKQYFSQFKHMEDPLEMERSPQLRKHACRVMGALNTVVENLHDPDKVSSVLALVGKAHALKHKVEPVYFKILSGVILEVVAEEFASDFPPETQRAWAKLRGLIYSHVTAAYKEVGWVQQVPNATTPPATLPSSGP
Cytoglobin (Cygb Δ1-15Δ174-190), sequence (Q8WWM9 16-173, stated change not applied): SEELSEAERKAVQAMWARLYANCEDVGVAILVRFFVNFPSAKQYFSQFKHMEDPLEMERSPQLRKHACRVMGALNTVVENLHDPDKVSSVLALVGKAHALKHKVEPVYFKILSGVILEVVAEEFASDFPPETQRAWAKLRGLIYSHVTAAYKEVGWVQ
Cytoglobin (Cygb), wild type, sequence (Q8WWM9 whole entry): as the sequence (Q8WWM9 whole entry) above

For CCCCCCCC/C=C\CCCCCCCC(=O)OC[C@H](COP(=O)(O)O)OC(=O)CCCCCCC/C=C\CCCCCCCC [DOPA, 1,2-dioleoyl-sn-glycero-3-phosphate], the “activation of peroxidase activity, Amplex Red oxidation, 1:25 Cygb:lipid liposom” value (Cytoglobin (Cygb) [1]) was 1.6 fold increase in rate.

For CCCCCCCC/C=C\CCCCCCCC(=O)O [OA, oleic acid], the Kd [2] was 3 ± 1.8 µM and the Kd [3] was 2300 ± 1000 nM.

With CCCCC/C=C\C/C=C\C/C=C\C/C=C\CCCC(=O)O[C@H](COC(=O)CCCCCCCCCCCCCCCCC)COP(=O)(O)O [SAPA, 1-stearoyl-2-arachidonoyl-sn-glycero-3-phosphate] the “LC-MS/MS of lipid oxidation products by Cygb/H2O2” value (Cytoglobin (Cygb) [4]) was 5.6 ± 0.1 picomoles of oxidation products.
